Source: patent US20090062223A1, “AMINO TRICYCLIC-NUCLEOSIDE COMPOUNDS, COMPOSITIONS, AND METHODS OF USE” (GENELABS TECHNOLOGIES, INC., priority 2007, published 2009)
Values after ≈ are worked out from the molar mass of the structure shown.

Legend:
[1] = Solubility (shaking flask); format: physicochemical; details: phosphate buffer solution (PBS), aqueous buffer, thermodynamic from solid; PBS; 37° C. for 24 hours
Protocol: The solubility for certain compounds were determined using the following protocol and procedure. 1) The solution, sterile water or phosphate buffer solution (PBS), was added to the test compound tube to make the final concentration 10 mg/mL. 2) The sample tube was vortexed and incubated at 37° C. for 24 hours. During the incubation period, the sample tube was vortexed several times. 3) After the incubation, vortex the tube and centrifuge the tube at 13,000 rpm for 10 mins using an Eppendorf Centrifuge Model 5415C. If the solution was still cloudy, centrifuge it for longer until a clear supernatant was achieved. 4) The supernatant was diluted to 1×, 10× and 100× in 50% ACN in water. 5) A six point standard curve was prepared separately to make the final concentrations of 1 μg/mL, 5 μg/mL, 10 μg/mL, 20 μg/mL, 40 μg/mL and 60 μg/mL. 6) Samples were quantified using an HPLC with UV detector. 7) From the three concentrations of 1×, 10× and 100× supernatant, choose the value, which was fallen into the standard curve range (1 ug/mL-60 ug/mL), as the final result. If all the results were out of the curve range, adjust using a dilution factor to make the value within the curve range.

[2] = Chemical stability in acidic solution (acid stability); format: physicochemical; details: pH 4.5 chemical solution; pH 4.5, 37° C.; read-out: Acid Stability (T ½, mins @ pH 4.5)
Caco-2 cells = experiment: in vitro; format: in vitro ADME
Protocol: (§1) Caco-2 cells were maintained in Dulbecco's Modification of Eagle's Medium (DMEM) with sodium pyruvate, Glutmax supplemented with 1% Pen/Strep, 1% NEAA and 10% fetal bovine serum in an incubator set at 37° C., 90% humidity and 5% CO2. Caco-2 cells between passage 43 and 61 were grown to confluence over at least 21-days on 24 well PET (polyethylene-terephthalate) plates (BD Biosciences). Experiments were run using a new HBSS donor buffer from Invitrogen containing additional 10 mM HEPES, 15 mM Glucose with pH adjusted to pH 6.5. The receiver well used HBSS buffer supplemented with 1% BSA and the pH adjusted to pH 7.4. After an initial equilibration with transport buffer, TEER values were read to test membrane integrity. The experiment was started by the addition of buffers containing test compounds and 100 μl of solution is taken at 1 and 2 hrs from the receiver compartment. Removed buffer was replaced with fresh buffer and a correction was applied to all calculations for the removed material. Each compound was tested in 2 separate replicate wells for each condition. All samples were immediately collected into 400 μl 100% acetonitrile acid to precipitate protein and stabilize test compounds. Cells were dosed on the apical or basolateral side to determine forward (A to B) and reverse (B to A) permeability. Permeability through a cell free trans-well was also determined as a measure of cellular permeability through the membrane and non-specific binding. To test for non-specific binding and compound instability the total amount of drug was quantitated at the end of the experiment and compared to the material present in the original dosing solution as a percent recovery. Samples were analyzed by LC/MS/MS.
(§2) The apparent permeability, Papp, and % recovery were calculated as follows: […]
(§3) where, • dR/dt is the slope of the cumulative concentration in the receiver compartment versus time in μM/s based on receiver concentrations measured at 60 and 120 minute. • Vr and Vd is the volume in the receiver and donor compartment in cm^3, respectively. • A is the area of the cell monolayer (0.33 cm^2). • D0 and D120 is the measured donor concentration at the beginning and end of the experiment, respectively. • R120 is the receiver concentration at the end of the experiment (120 minutes).
(§4) The apparent permeability for certain compounds were determined using the above procedure.

in vitro = in vitro ADME; details: human, Caco-2
Protocol: as §1, §2, §3, §4

solubility at 24 h [1]	half-life at 1 µg/mL [2]	Permeability Papp (A to B) × 10^−6 cm/s (Caco-2 A-B) (Caco-2 cells)	Structure (SMILES)	Papp A→B at 2 h (in vitro)
0.134 mg/mL (≈ 321 µM)	< 30 min	high	CC(C)C(=O)O[C@@H]1[C@@H](CO)O[C@@H](n2cc3c4c(ncnc42)NC(=O)C=C3N)C1(C)O (stereo in doubt) [Compound 115, Isobutyric acid 5-(9-amino-7-oxo-6,7-dihydro-2,3,5,6-tetraaza-benzo[cd]azulen-2-yl)-4-hydroxy-2-hydroxymethyl-4-methyl-tetrahydro-furan-3-yl ester]	
0.202 mg/mL (≈ 541 µM)	< 30 min	low	CC12OC(=O)O[C@@H]1[C@@H](CO)O[C@H]2n1cc2c3c(ncnc31)NC(=O)C=C2N (stereo partly shown) [Compound 116, 9-Amino-2-(6-hydroxymethyl-3a-methyl-2-oxo-tetrahydro-furo[3,4-d][1,3]dioxol-4-yl)-2,6-dihydro-2,3,5,6-tetraaza-benzo[cd]azulen-7-one]	
9.06 mg/mL (≈ 21700 µM)	< 30 min	high	CC(C)C(=O)OC[C@H]1O[C@@H](n2cc3c4c(ncnc42)NC(=O)C=C3N)[C@@](C)(O)[C@@H]1O (stereo in doubt) [Compound 105, Isobutyric acid 5-(9-amino-7-oxo-6,7-dihydro-2,3,5,6-tetraaza-benzo[cd]azulen-2-yl)-3,4-dihydroxy-4-methyl-tetrahydro-furan-2-ylmethylester]	
0.067 mg/mL (≈ 137 µM)	< 30 min	low	CC(C)C(=O)OC[C@H]1O[C@@H](n2cc3c4c(ncnc42)NC(=O)C=C3N)[C@@](C)(O)[C@@H]1OC(=O)C(C)C (stereo in doubt) [Compound 134, Isobutyric acid 5-(9-amino-7-oxo-6,7-dihydro-2,3,5,6-tetraaza-benzo[cd]azulen-2-yl)-4-hydroxy-3-isobutyryloxy-4-methyl-tetrahydro-furan-2-ylmethyl ester]	
0.028 mg/mL (≈ 67.4 µM)	< 15 min	medium	CC(=O)OC[C@H]1O[C@@H](n2cc3c4c(ncnc42)NC(=O)C=C3N)[C@@]2(C)OC(=O)O[C@H]12 [Compound 108, Acetic acid 6-(9-amino-7-oxo-6,7-dihydro-2,3,5,6-tetraaza-benzo[cd]azulen-2-yl)-6a-methyl-2-oxo-tetrahydro-furo[3,4-d][1,3]dioxol-4-ylmethyl ester]	
6.25 mg/mL (≈ 12800 µM)	< 30 min	low	CC(=O)N[C@H](C(=O)OC[C@H]1O[C@@H](n2cc3c4c(ncnc42)NC(=O)C=C3N)C(C)(O)[C@@H]1O)C(C)C (stereo partly shown) [Compound 124, 2-Acetylamino-3-methyl-butyric acid5-(9-amino-7-oxo-6,7-dihydro-2,3,5,6-tetraaza-benzo[cd]azulen-2-yl)-3,4-dihydroxy-4-methyl-tetrahydro-furan-2-ylmethyl ester]	
0.065 mg/mL (≈ 147 µM)	< 30 min	high	CC(C)C(=O)OC[C@H]1O[C@@H](n2cc3c4c(ncnc42)NC(=O)C=C3N)[C@@]2(C)OC(=O)O[C@H]12 [Compound 106, Isobutyric acid 6-(9-amino-7-oxo-6,7-dihydro-2,3,5,6-tetraaza-benzo[cd]azulen-2-yl)-6a-methyl-2-oxo-tetrahydro-furo[3,4-d][1,3]dioxol-4-ylmethyl ester]	

Second part, the compound before the results:

Structure (SMILES)	solubility at 24 h [1]	half-life at 1 µg/mL [2]	Permeability Papp (A to B) × 10^−6 cm/s (Caco-2 A-B) (Caco-2 cells)	Papp A→B at 2 h (in vitro)
CCCCCOC(=O)NC1=CC(=O)Nc2ncnc3c2c1cn3[C@@H]1O[C@H](CO)[C@@H](O)[C@@]1(C)O [Compound 138, [2-(3,4-Dihydroxy-5-hydroxymethyl-3-methyl-tetrahydro-furan-2-yl)-7-oxo-6,7-dihydro-2H-2,3,5,6-tetraaza-benzo[cd]azulen-9-yl]-carbamic acidpentyl ester]	0.032 mg/mL (≈ 69.3 µM)	> 120 min	medium	
CCCCCOC(=O)OC[C@H]1O[C@@H](n2cc3c4c(ncnc42)NC(=O)C=C3N)[C@@](C)(O)[C@@H]1O (stereo in doubt) [Compound 103, Carbonic acid 5-(9-amino-7-oxo-6,7-dihydro-2,3,5,6-tetraaza-benzo[cd]azulen-2-yl)-3,4-dihydroxy-4-methyl-tetrahydro-furan-2-ylmethylester pentyl ester]		≤ 30 min	low	
CC(=O)OC[C@H]1O[C@@H](n2cc3c4c(ncnc42)NC(=O)C=C3N)C(C)(OC(C)=O)[C@@H]1OC(C)=O (stereo in doubt) [Compound 117, Acetic acid 4-acetoxy-2-acetoxymethyl-5-(9-amino-7-oxo-6,7-dihydro-2,3,5,6-tetraaza-benzo[cd]azulen-2-yl)-4-methyl-tetrahydro-furan-3-yl ester]	0.51 mg/mL (≈ 1080 µM)			> 10 nm/s
CCCCCC(=O)O[C@@H]1[C@@H](CO)O[C@@H](n2cc3c4c(ncnc42)NC(=O)C=C3N)[C@]1(C)O [Compound 113, Hexanoic acid 5-(9-amino-7-oxo-6,7-dihydro-2,3,5,6-tetraaza-benzo[cd]azulen-2-yl)-4-hydroxy-2-hydroxymethyl-4-methyl-tetrahydro-furan-3-yl ester]	0.067 mg/mL (≈ 150 µM)	< 30 min	medium	
CC(=O)OC[C@H]1O[C@@H](n2cc3c4c(ncnc42)NC(=O)C=C3N)[C@@](C)(O)[C@@H]1OC(C)=O (stereo in doubt) [Compound 135, Acetic acid 3-acetoxy-5-(9-amino-7-oxo-6,7-dihydro-2,3,5,6-tetraaza-benzo[cd]azulen-2-yl)-4-hydroxy-4-methyl-tetrahydro-furan-2-ylmethylester]	7.28 mg/mL (≈ 16900 µM)	< 15 min	medium	
CCCCCC(=O)OC[C@H]1O[C@@H](n2cc3c4c(ncnc42)NC(=O)C=C3N)[C@@](C)(O)[C@@H]1O (stereo in doubt) [Compound 101, Hexanoic acid 5-(9-amino-7-oxo-6,7-dihydro-2,3,5,6-tetraaza-benzo[cd]azulen-2-yl)-3,4-dihydroxy-4-methyl-tetrahydro-furan-2-ylmethylester]	0.137 mg/mL (≈ 308 µM)	< 30 min	high	
CC(C)C(=O)OCOC(=O)NC1=CC(=O)Nc2ncnc3c2c1cn3[C@@H]1O[C@H](CO)[C@@H](O)[C@]1(C)O (stereo in doubt) [Compound 109, Isobutyric acid 2-(3,4-dihydroxy-5-hydroxymethyl-3-methyl-tetrahydro-furan-2-yl)-7-oxo-6,7-dihydro-2H-2,3,5,6-tetraaza-benzo[cd]azulen-9-ylcarbamoyloxymethyl ester]	0.215 mg/mL (≈ 437 µM)	> 120 min	low	
CC1(O)C(O)C(CO)OC1n1cc2c3c(ncnc31)NC(=O)C=C2N (stereo not shown) [Compound 100, 9-amino-2-(3,4-dihydroxy-5-hydroxymethyl-3-methyl-tetrahydro-furan-2-yl)-2,6-dihydro-2,3,5,6-tetraaza-benzo[cd]azulen-7-one, reference compound]	0.011 mg/mL (≈ 31.7 µM)	< 15 min	low	
